Assay results: publication PMC6152724, “Secondary Sulfonamides as Effective Lactoperoxidase Inhibitors” (Molecules : A Journal of Synthetic Chemistry and Natural …, 2017)

Target: T1, LPO purified from bovine milk (Bos taurus, UniProt P80025)
T1 construct: from tissue; host or cells: fresh bovine milk
Assay: LPO inhibition assay (ABTS oxidation by H2O2, absorbance at 412 nm; Lineweaver–Burk plots)
Format: biochemical
Settings: for IC50: from activity (%)-[inhibitor] regression graphs, ABTS substrate; for Inhibition Type: with respect to ABTS substrate, from Lineweaver–Burk plots
Method: LPO activities were determined by the procedure of Shindler and Bardsley with slight modification. This method is based on the oxidation of chromogenic substrate 2,2′-azino-bis(3-ethylbenzothiazoline-6-sulfonic acid) (ABTS) by hydrogen peroxide (H2O2), which results in a product which had absorbance at 412 nm.
The effects of secondary sulfonamide derivatives (4a–8h) on LPO purified from fresh bovine milk by affinity chromatography technique were previously determined. In our study, LPO activity was measured in the presence of different concentrations of secondary sulfanilamide derivatives (4a–8h). A control sample without secondary sulfonamide was taken as 100%. An activity (%)-[Secondary sulfonamide] plot was drawn. For the determination of the inhibition constant (Ki) values, three different secondary sulfonamide derivative (4a–8h) concentrations were used. Additionally, ABTS was used as a substrate at five different concentrations. Lineweaver–Burk plots (1/V-1/[ABTS]) were obtained for secondary sulfonamide; the Ki and the inhibition type were calculated from these plots. The data obtained were analysed by t-test and the results are given as Means ± SD.

[1] = LPO purified from bovine milk, Lineweaver–Burk plots, three inhibitor and five ABTS concentrations, Means ± SD
[2] = bovine milk LPO, values restated in text in nM

Row | SMILES | Ki [1] [nM] | IC50 (LPO purified from bovine milk) [µM] | Inhibition Type | Ki [2] [nM]
1 | Nc1ccc(S(=O)(=O)Nc2nccs2)cc1 [4a, Sulfathiazole, reference compound] | 38400 ± 6060 | 231 | Non-competitive | 
2 | Nc1ccc(S(=O)(=O)Nc2ncccn2)cc1 [4b, Sulfadiazine, reference compound] | 90700 ± 2520 | 92.2 | Non-competitive | 
3 | Cc1cc(C)nc(NS(=O)(=O)c2ccc(N)cc2)n1 [4c, Sulfamethazine, reference compound] | 198000 ± 24500 | 346 | Non-competitive | 
4 | Nc1ccc(S(=O)(=O)Nc2ccccn2)cc1 [4d, Sulfapyridine, reference compound] | 65000 ± 3610 | 227 | Competitive | 
5 | Cc1noc(NS(=O)(=O)c2ccc(N)cc2)c1C [4e, Sulfisoxazole, reference compound] | 183000 ± 34100 | 222 | Non-competitive | 
6 | Cc1nnc(NS(=O)(=O)c2ccc(N)cc2)s1 [4f, Sulfamethizole, reference compound] | 21200 ± 5660 | 115 | Non-competitive | 
7 | Cc1ccnc(NS(=O)(=O)c2ccc(N)cc2)n1 [4g, Sulfamerazine, reference compound] | 20500 ± 2140 | 18.7 | Non-competitive | 
8 | Nc1ccc(S(N)(=O)=O)cc1 [4h, Sulfanilamide, reference compound] | 35700 ± 4880 | 8.48 | Competitive | 
9 | CC(=O)Oc1ccc(C(=O)Nc2ccc(S(=O)(=O)Nc3nccs3)cc2)cc1 [5a, N-(sulfathiazole)-p-acetoxybenzamide] | 56100 ± 23600 | 99 | Non-competitive | 
10 | CC(=O)Oc1ccc(C(=O)Nc2ccc(S(=O)(=O)Nc3ncccn3)cc2)cc1 [5b, N-(sulfadiazine)-p-acetoxybenzamide] | 26 ± 4 | 0.015 | Non-competitive | 260
11 | CC(=O)Oc1ccc(C(=O)Nc2ccc(S(=O)(=O)Nc3nc(C)cc(C)n3)cc2)cc1 [5c, N-(sulfamethazine)-p-acetoxybenzamide] | 8 ± 3 | 0.01 | Competitive | 80
12 | CC(=O)Oc1ccc(C(=O)Nc2ccc(S(=O)(=O)Nc3ccccn3)cc2)cc1 [5d, N-(sulfapyridine)-p-acetoxybenzamide] | 49100 ± 20000 | 10 | Competitive | 
13 | CC(=O)Oc1ccc(C(=O)Nc2ccc(S(=O)(=O)Nc3onc(C)c3C)cc2)cc1 [5e, N-(sulfisoxazole)-p-acetoxybenzamide] | 934 ± 357 | 3.03 | Competitive | 
14 | CC(=O)Oc1ccc(C(=O)Nc2ccc(S(=O)(=O)Nc3nnc(C)s3)cc2)cc1 [5f, N-(sulfamethizole)-p-acetoxybenzamide] | 324 ± 115 | 0.238 | Non-competitive | 
15 | CC(=O)Oc1ccc(C(=O)Nc2ccc(S(=O)(=O)Nc3nccc(C)n3)cc2)cc1 [5g, N-(sulfamerazine)-p-acetoxybenzamide] | 13400 ± 6190 | 3.94 | Competitive | 
16 | CC(=O)Oc1ccc(C(=O)Nc2ccc(S(N)(=O)=O)cc2)cc1 [5h, N-(sulfanilamide)-p-acetoxybenzamide] | 2290 ± 1020 | 3.05 | Non-competitive | 
17 | CC(=O)Oc1cc(C(=O)Nc2ccc(S(=O)(=O)Nc3nccs3)cc2)cc(OC(C)=O)c1OC(C)=O [6a, N-(sulfathiazole)-3,4,5-triacetoxybenzamide] | 1.1 | 0.000656 | Non-competitive | 
18 | CC(=O)Oc1cc(C(=O)Nc2ccc(S(=O)(=O)Nc3ncccn3)cc2)cc(OC(C)=O)c1OC(C)=O [6b, N-(sulfadiazine)-3,4,5-triacetoxybenzamide] | 2900 ± 1130 | 13.9 | Competitive | 
19 | CC(=O)Oc1cc(C(=O)Nc2ccc(S(=O)(=O)Nc3nc(C)cc(C)n3)cc2)cc(OC(C)=O)c1OC(C)=O [6c, N-(sulfamethazine)-3,4,5-triacetoxybenzamide] | 152000 ± 48700 | 139 | Non-competitive | 
20 | CC(=O)Oc1cc(C(=O)Nc2ccc(S(=O)(=O)Nc3ccccn3)cc2)cc(OC(C)=O)c1OC(C)=O [6d, N-(sulfapyridine)-3,4,5-triacetoxybenzamide] | 1390 ± 150 | 1.56 | Non-competitive | 
